In one test the test system is IL-6. Put plainly: IL-6 secretion in hPBMC using R848 stimulation. It is filed as cell-based, human. The note with it: hPBMC, R848 as stim, t = 20 h.
The subject of another test is OCI-LY10. Briefly: CTG Cell Viability Assay - OCI-LY10. It is filed as cell-based, human. As to conditions: Homo sapiens, OCI-Ly10, 96 h, OCI-LY10, 4 days; read-out: CTG Cell Viability Assay - OCI-LY10: Average external-IC50. The procedure, abridged:
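Viability read by CellTiter-Glo luminescence after 4 days at 37° C under 5% CO2 with compound (top 10 μM final, 1:3 steps, 9 doses, DMSO 0.2%). Three-parameter logistic fit gave IC50.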

The target in test [1] is T1, IRAK4 (Homo sapiens (Human), UniProt Q9NWZ3). Put plainly: hPBMC IRAK4 degradation flow assay. The note with it: hPBMC monocyte. It is filed as cell-based. In outline:
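Thawed human PBMCs treated with 10-point, 5-fold compound dilutions (0.1% DMSO) at 37° C. for 20 hours or 4 hours. IRAK4 measured by flow MFI in CD14+ monocytes and CD14− lymphocytes, normalized to DMSO and 10 μM 20-hour control; DC50 and max degradation from 4-parameter logistic fit.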

Test [2] deals with T1, IRAK4. Put plainly: IRAK4 MSD degradation in OCI-LY10. The format is cell-based. The note with it: OCI-LY10, 4 hrs. The procedure, abridged: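 Remaining IRAK4 quantified by electrochemiluminescent MSD sandwich assay with two anti-IRAK4 antibodies. Compounds were dosed as 8 concentrations in 1:3 steps from a 1 to 10 μM final top on OCI-LY10 cells, incubated 4 to 24 h at 37° C. under 5% CO2. DC50 fitted with a three-parameter logistic curve.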

[3] abbreviates: 20 hr, flow assay, read-out: IRAK4 degradation in hPBMC monocyte at 20 hr: Average external Abs DC50.
The mark [4] stands for this setting: MSD, read-out: IRAK4 MSD degradation in OCI-LY10 at 4 hrs: Average external-Abs DC50.
The mark [5] stands for this setting: 20 hrs, read-out: IRAK4 degradation in hPBMC monocyte: DC50.
Where [6] appears, read: read-out: IRAK4 MSD degradation in OCI-LY10 at 4 hrs: DC50.

T1 sequence (Q9NWZ3 whole entry): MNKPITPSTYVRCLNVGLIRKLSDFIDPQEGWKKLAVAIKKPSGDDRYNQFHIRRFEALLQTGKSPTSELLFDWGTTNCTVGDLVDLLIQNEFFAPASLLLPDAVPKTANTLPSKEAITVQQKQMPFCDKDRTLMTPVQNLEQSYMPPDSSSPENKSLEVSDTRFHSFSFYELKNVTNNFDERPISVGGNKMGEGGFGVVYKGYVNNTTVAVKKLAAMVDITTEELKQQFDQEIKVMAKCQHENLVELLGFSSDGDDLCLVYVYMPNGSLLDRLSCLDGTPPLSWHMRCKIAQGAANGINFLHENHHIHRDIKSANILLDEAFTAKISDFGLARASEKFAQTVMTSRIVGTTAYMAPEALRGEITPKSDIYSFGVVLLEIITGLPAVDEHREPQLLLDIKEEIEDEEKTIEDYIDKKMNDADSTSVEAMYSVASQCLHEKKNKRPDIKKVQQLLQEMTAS

Turning to `Cn1c(=O)n(C2CCC(=O)NC2=O)c2cccc(CCC(=O)C3CC4(CCN(C[C@H]5CC[C@H](n6cc(NC(=O)c7cnn8ccc(N9C[C@H]%10C[C@@H]9CO%10)nc78)c(C(F)F)n6)CC5)CC4)C3)c21` (some centres unmarked) [I-415], the IC50 (in general, the concentration that gives 50% inhibition) with IL-6 (Homo sapiens, 20 h) was under 1 nM; with OCI-LY10, over 1000 nM. Further, the half-maximal degradation concentration (DC50) at IRAK4 [1] (setting [3]) and at IRAK4 [2] (setting [4]) was under 10 nM throughout.
As for `Cn1c(=O)n(C2CCC(=O)NC2=O)c2cccc(CCCC3CCN(C[C@H]4CC[C@H](n5cc(NC(=O)c6cnn7ccc(N8C[C@H]9C[C@@H]8CO9)nc67)c(C(F)F)n5)CC4)CC3)c21` (some centres unmarked) [I-416], the 50% inhibitory concentration (IC50) in the test with IL-6 (Homo sapiens, 20 h) is under 1 nM; in the test on OCI-LY10, over 1000 nM. Also, the half-maximal degradation concentration (DC50) at IRAK4 [1] (setting [3]) and at IRAK4 [2] (setting [4]) was under 10 nM throughout.
Take `Cn1c(=O)n(C2CCC(=O)NC2=O)c2cccc(C#CCN3CCC4(CC3)CN(C(=O)[C@H]3CC[C@H](n5cc(NC(=O)c6cnn7ccc(N8C[C@H]9C[C@@H]8CO9)nc67)c(C(F)F)n5)CC3)C4)c21` (some centres unmarked) [I-418]: the concentration for half-maximal inhibition (IC50) in the test with IL-6 (Homo sapiens, 20 h) was 1 to 10 nM; with OCI-LY10, over 1000 nM. The DC50 on IRAK4 [1] (setting [3]) and on IRAK4 [2] (setting [4]) was 10 to 100 nM in each case.
On to `CN(CCCOCCCc1cccc2c1n(C)c(=O)n2C1CCC(=O)NC1=O)C[C@H]1CC[C@H](n2cc(NC(=O)c3cnn4ccc(N5CCCCC5)nc34)c(C(F)F)n2)CC1` (some centres unmarked) [I-419], for which the IC50 in the test on IL-6 (Homo sapiens, 20 h) is 1 to 10 nM; in the test on OCI-LY10, over 1000 nM. Moreover, the DC50 (in general, the midpoint of the concentration-degradation curve) on IRAK4 [1] (setting [3]) was under 10 nM; on IRAK4 [2] (setting [4]), 10 to 100 nM.
The like results for `Cn1c(=O)n(C2CCC(=O)NC2=O)c2cccc(CCN3CC4(CCN(C(=O)[C@H]5CC[C@H](n6cc(NC(=O)c7cnn8ccc(N9C[C@H]%10C[C@@H]9CO%10)nc78)c(C(F)F)n6)CC5)CC4)C3)c21` (some centres unmarked) [I-420] were, in that order, under 1 nM, under 50 nM, under 10 nM and under 10 nM.
The like results for `Cn1c(=O)n(C2CCC(=O)NC2=O)c2cccc(CC(=O)N3CC4(CCN(C[C@H]5CC[C@H](n6cc(NC(=O)c7cnn8ccc(N9C[C@H]%10C[C@@H]9CO%10)nc78)c(C(F)F)n6)CC5)CC4)C3)c21` (some centres unmarked) [I-421] were, in that order, under 1 nM, over 1000 nM, under 10 nM and under 10 nM.
The like results for `Cn1c(=O)n(C2CCC(=O)NC2=O)c2cccc(CCCN3CCC4(CC3)CN(C(=O)[C@H]3CC[C@H](n5cc(NC(=O)c6cnn7ccc(N8C[C@H]9C[C@@H]8CO9)nc67)c(C(F)F)n5)CC3)C4)c21` (some centres unmarked) [I-422] were, in that order, under 1 nM, over 1000 nM, under 10 nM and 10 to 100 nM.
Regarding `Cn1c(=O)n(C2CCC(=O)NC2=O)c2cccc(CC3CC4(CCN(C(=O)c5ccc(-n6cc(NC(=O)c7cnn8ccc(N9C[C@H]%10C[C@@H]9CO%10)nc78)c(C(F)F)n6)cc5)CC4)C3)c21` (some centres unmarked) [I-423], the IC50 in the test on IL-6 (Homo sapiens, 20 h) was 1 to 10 nM; in the test on OCI-LY10 it was over 1000 nM. In addition, the half-maximal degradation concentration (DC50) on IRAK4 [1] (setting [3]) was under 10 nM; at IRAK4 [2] (setting [4]), 100 to 1000 nM.
The like results for `Cn1c(=O)n(C2CCC(=O)NC2=O)c2cccc(CCCN3CCOC4(CCN(C(=O)c5ccc(-n6cc(NC(=O)c7cnn8ccc(N9C[C@H]%10C[C@@H]9CO%10)nc78)c(C(F)F)n6)cc5)CC4)C3)c21` (some centres unmarked) [I-424] were, in that order, 1 to 10 nM, over 1000 nM, under 10 nM and under 10 nM.
For `Cn1c(=O)n(C2CCC(=O)NC2=O)c2cccc(CCCCC3CCN(C(=O)c4ccc(-n5cc(NC(=O)c6cnn7ccc(N8C[C@H]9C[C@@H]8CO9)nc67)c(C(F)F)n5)cc4)CC3)c21` (some centres unmarked) [I-426] the same measures were 1 to 10 nM, over 1000 nM, under 10 nM and 100 to 1000 nM.
Consider `O=C1CCC(n2c3ccccc3c3c(CCCN4CC5(CCN(C(=O)[C@H]6CC[C@H](n7cc(NC(=O)c8cnn9ccc(N%10C[C@H]%11C[C@@H]%10CO%11)nc89)c(C(F)F)n7)CC6)CC5)C4)ccnc32)C(=O)N1` (some centres unmarked) [I-447], for which the IC50 is 1 to 10 nM in the test on IL-6 (Homo sapiens, 20 h) and over 1000 nM in the test on OCI-LY10. Also, the 50% degradation concentration (DC50) was under 10 nM at IRAK4 [1] (setting [5]) and 10 to 100 nM on IRAK4 [2] (setting [6]).
For `Cn1c(=O)n(C2CCC(=O)NC2=O)c2cccc(CCCOC[C@@H]3CN(C[C@H]4CC[C@H](n5cc(NC(=O)c6cnn7ccc(N8CCOCC8)nc67)c(C(F)F)n5)CC4)CCO3)c21` (some centres unmarked) [I-448] the same measures were 1 to 10 nM, over 1000 nM, under 10 nM and 10 to 100 nM.
As for `Cn1c(=O)n(C2CCC(=O)NC2=O)c2cccc(CCCN3CCOC4(CCN(C[C@H]5CC[C@H](n6cc(NC(=O)c7cnn8ccc(N9C[C@H]%10C[C@@H]9CO%10)nc78)c(C(F)F)n6)CC5)CC4)C3)c21` (some centres unmarked) [I-450], the IC50 was 1 to 10 nM with IL-6 and over 1000 nM in the test on OCI-LY10. In addition, the 50% degradation concentration (DC50) at IRAK4 [1] (setting [5]) was under 10 nM; at IRAK4 [2] (setting [6]) it was 10 to 100 nM.
As for `CN(CCCc1cccc2c1n(C)c(=O)n2C1CCC(=O)NC1=O)C(=O)c1ccc(N2CCC(n3cc(NC(=O)c4cnn5ccc(N6C[C@H]7C[C@@H]6CO7)nc45)c(C(F)F)n3)CC2)cc1` (some centres unmarked) [I-479], the half-maximal inhibitory concentration (IC50) is 10 to 100 nM in the test on IL-6 (Homo sapiens, 20 h) and over 1000 nM with OCI-LY10. The DC50 at IRAK4 [1] (setting [5]) and at IRAK4 [2] (setting [6]) was 100 to 1000 nM each time.
Take `C[C@@H]1CN(c2ccn3ncc(C(=O)Nc4cn([C@H]5CC[C@H](C(=O)N6CCC7(CC6)CN(CCCc6cccc8c6n(C)c(=O)n8C6CCC(=O)NC6=O)C7)CC5)nc4C(F)F)c3n2)C[C@H](C)O1` (some centres unmarked) [I-480]: the IC50 with IL-6 (Homo sapiens, 20 h) was under 1 nM; in the test on OCI-LY10, over 1000 nM. Besides, the figures for the half-maximal degradation concentration (DC50) at IRAK4 [1] (setting [5]) and on IRAK4 [2] (setting [6]) were under 10 nM and 10 to 100 nM, respectively.
The like results for `Cn1c(=O)n(C2CCC(=O)NC2=O)c2cccc(CCCOC3CCN(C[C@H]4CC[C@H](n5cc(NC(=O)c6cnn7cccnc67)c(N6CCOCC6)n5)CC4)CC3)c21` (some centres unmarked) [I-481] were, in that order, 10 to 100 nM, over 1000 nM, 100 to 1000 nM and 100 to 1000 nM.
`O=C1CCC(n2c3cccc(C#CCOC4CCN(C[C@H]5CC[C@H](n6cc(NC(=O)c7cnn8ccc(N9C[C@H]%10C[C@@H]9CO%10)nc78)c(C(F)F)n6)CC5)CC4)c3c3cccnc32)C(=O)N1` (some centres unmarked) [I-482]: the IC50 in the test with IL-6 (Homo sapiens, 20 h) is 1 to 10 nM; with OCI-LY10 it was over 1000 nM. Also, the DC50 at IRAK4 [1] (setting [5]) lay within 100 to 1000 nM; at IRAK4 [2] (setting [6]) it was 10 to 100 nM.
For `Cn1c(=O)n(C2CCC(=O)NC2=O)c2cccc(C#CCN3CCC4(CC3)CN(C[C@H]3CC[C@H](n5cc(NC(=O)c6cnn7ccc(N8C[C@H]9C[C@@H]8CO9)nc67)c(C(F)F)n5)CC3)C4)c21` (some centres unmarked) [I-485] the same measures were 1 to 10 nM, over 1000 nM, under 10 nM and 10 to 100 nM.
As for `Cn1c(=O)n(C2CCC(=O)NC2=O)c2cccc(CCC3CC4(CCN(C[C@H]5CC[C@H](n6cc(NC(=O)c7cnn8ccc(N9C[C@H]%10C[C@@H]9CO%10)nc78)c(C(F)F)n6)CC5)CC4)C3)c21` (some centres unmarked) [I-486], the IC50 with IL-6 (Homo sapiens, 20 h) was under 1 nM; in the test with OCI-LY10 it was over 1000 nM. Also, the DC50 on IRAK4 [1] (setting [5]) and on IRAK4 [2] (setting [6]) was under 10 nM throughout.
In the case of `Cn1c(=O)n(C2CCC(=O)NC2=O)c2cccc(CCC3CCN(C[C@H]4CC[C@H](n5cc(NC(=O)c6cnn7ccc(N8C[C@H]9C[C@@H]8CO9)nc67)c(C(F)F)n5)CC4)CC3)c21` (some centres unmarked) [I-487], the IC50 in the test on IL-6 (Homo sapiens, 20 h) is under 1 nM; with OCI-LY10, over 1000 nM. Also, the DC50 at IRAK4 [1] (setting [5]) was under 10 nM; at IRAK4 [2] (setting [6]), 10 to 100 nM.
